Laboratory results published in patent publication US10772866B2 (UNIVERSITY-INDUSTRY COOPERATION GROUP OF KYUNG HEE …, priority 2013, dated 2020).

Tested on: CA1 neuron region of hippocampal tissue
Assay: Crystal violet staining of CA1 neuron region of hippocampal tissue after transient global ischemia
Type: in vivo, CD1 mice
Conditions: mice after transient global ischemia; fluoxetine, vitamin C alone or together at trace amount; vs normal and negative control groups
From the text: Eight-week old adult male CD1 mice with a weight of 33 g to 37 g were induced to be anesthetized by injecting with 2% isoflurane under an air condition, in which nitrous oxide and oxygen were in a 70:30 ratio, and the mice were induced to have transient global ischemia according to the previous disclosure while the mice were maintained in the anesthetized state with 1% isoflurane (Kim, D. H. et. al, 2009. Food Chem. Toxicol. 47, 1473-1479.). The thus-prepared mice with transient global ischemia put into cages (4 mice/cage) were given ad libitum access to water and foods, and bred in an environment of a constant temperature (23±1° C.) and continuous humidity (60±10%) under a 12 hour light/dark cycle.
Specifically, the brains obtained and stored by performing in the same manner as in <Example 6> were cut into 30 μm coronal plane sections, placed on gelatin-coated slides, stained with crystal violet, and dehydrated by adding 70%, 80%, 90%, and 100% alcohol in this order. Upon dehydration, xylene was added thereto, covered with coverslips, and the CA1 neuron region of hippocampal tissue was observed.

Row | Compound | recovery of hippocampal tissue injury (CA1 neuron region, preserved cells, FIGS. 7 and 8)
1 | CNCCC(Oc1ccc(C(F)(F)F)cc1)c1ccccc1 (centres unmarked) [fluoxetine] | a recovery similar to that of the negative control group
2 | O=C1O[C@H]([C@@H](O)CO)C(O)=C1O [vitamin C, ascorbic acid] | a recovery similar to that of the negative control group
